# Test results taken from article PMC6736568, “Discovery of Novel Anti-cryptosporidial Activities From Natural Products by in vitro High-Throughput Phenotypic Screening” (Frontiers in Microbiology, 2019).
# Like-named read-outs stand apart in the source and are kept apart here.
# Experiments:
# [1] = test system: HCT-8 host cells (Hs18S)
# [2] = test system: Cryptosporidium parvum; assay: qRT-PCR assay of the growth of C. parvum in vitro in HCT-8 host cells (primary and secondary screening, EC50); assay type: cell-based; details: for inhibition at 10 µM: Cryptosporidium parvum, HCT-8, read-out: Inhibition (%); for inhibition at 10 µM / Inhibition (%): primary screening at 10 uM; for % Inhibition (3.3 uM): secondary screening at 3.3 uM
# [3] = in vitro
# [4] = primary screening at 10 uM, treated vs control
# [5] = primary screening at 10 uM, from Hs18S ΔCT
molecule,measurement,setting,value
CC1(C)[C@@H](O)CC[C@]2(C)[C@H]3C(=O)C=C4[C@H]5C[C@@](C)(C(=O)O)CC[C@]5(C)CC[C@@]4(C)[C@]3(C)CC[C@@H]12,Hs18S ΔCT,[1]; [4],-0.01
same,inhibition at 10 µM,[2],-12.7%
same,cytotoxicity at 10 µM,[3],-0.5%
CCOc1cccc(C(=O)c2ccc(O)c(O)c2O)c1,Hs18S ΔCT,"[1]; human, 41 h, 10 μM",-0.39
same,inhibition at 10 µM,[2],-37.2%
same,"cytotoxicity at 41 h, 10 µM",[3]; human,-31.4%
Cc1cc(O)cc(=O)o1,Hs18S ΔCT,[1]; [4],0.04
same,inhibition at 10 µM,[2],15.4%
same,cytotoxicity at 10 µM,[3],3.1%
CC(C)=CCC/C(C)=C/COc1ccc2ccc(=O)oc2c1,Hs18S ΔCT,[1]; [4],0.02
same,inhibition at 10 µM,[2],3.93%
same,cytotoxicity at 10 µM,[3],1.2%
COc1cc(OC)c2c(c1)O[C@H](c1ccc(OC)c(OC)c1)[C@@H](O)C2,Hs18S ΔCT,[1]; [4],-0.47
same,inhibition at 10 µM,[2],17.5%
same,cytotoxicity at 10 µM,[3],-38.4%
COc1ccc2c(c1)OCC(Cc1ccc(OC)c(OC)c1)C2=O (stereo not shown),Hs18S ΔCT,[1]; [4],0.04
same,inhibition at 10 µM,[2],20.2%
same,cytotoxicity at 10 µM,[3],2.4%
CNc1ccccc1C(=O)O,Hs18S ΔCT,[1],0.20
same,inhibition at 10 µM,[2],-14.8%
same,cytotoxicity at 10 µM,[3],13%
COc1ccc2c(c1)OC[C@@H](Cc1ccc(OC)c(OC)c1)[C@H]2O,Hs18S ΔCT,[1]; [4],-0.10
same,inhibition at 10 µM,[2],9.9%
same,cytotoxicity at 10 µM,[3],-6.9%
C=CC(C)(O)CCC=C(C)CCC=C(C)C (mixture of isomers) [NEROLIDOL],Hs18S ΔCT,"[1]; human, 41 h, 10 μM",-0.17
same,inhibition at 10 µM,[2],-35.5%
same,"cytotoxicity at 41 h, 10 µM",[3]; human,-12.9%
"Cc1cc(O)c2c(c1O)C(=O)c1c(O)cc(C)c(O)c1C2=O [1,4,5,8-TETRAHYDROXY-2,6-DIMETHYLANTHROQUINONE]",Hs18S ΔCT,"[1]; human, 41 h, 10 μM",3.65
same,"cytotoxicity at 41 h, 10 µM",[3]; human,92%
CCCCCCCCCCCCCCCC(=O)OCC(O)CO (stereo not shown) [1-MONOPALMITIN],Hs18S ΔCT,"[1]; human, 41 h, 10 μM",-0.10
same,inhibition at 10 µM,[2],14.2%
same,"cytotoxicity at 41 h, 10 µM",[3]; human,-7.1%
"O=C(/C=C/c1ccccc1)c1ccc(O[C@@H]2O[C@H](CO)[C@@H](O)[C@H](O)[C@H]2O)cc1O [2',4'-DIHYDROXYCHALCONE 4'-GLUCOSIDE]",Hs18S ΔCT,"[1]; human, 41 h, 10 μM",0.03
same,inhibition at 10 µM,[2],-19.5%
same,"cytotoxicity at 41 h, 10 µM",[3]; human,1.9%
CC1CCC23CCC4(C)C5(C)CCC6C(C)(C)C(=O)CCC6(C)C5CCC4(OC2=O)C3C1C (stereo not shown) [3-OXOURSAN (28-13)OLIDE],Hs18S ΔCT,[1]; [4],6.62
same,cytotoxicity at 10 µM,[3],99%
CC(=O)O[C@@H]1C[C@@]2(C)[C@H](c3ccoc3)C[C@H]3O[C@]32[C@]2(C)C(=O)C(O)=C3C(C)(C)C(=O)C=C[C@]3(C)[C@@H]12 [ANTHOTHECOL],Hs18S ΔCT,"[1]; human, 41 h, 10 μM",6.51
same,"cytotoxicity at 41 h, 10 µM",[3]; human,98.9%
C[C@@]12C(=O)OC(=O)[C@]1(C)[C@H]1CC[C@@H]2O1 [CANTHARIDIN],Hs18S ΔCT,[1]; [4],7.39
same,cytotoxicity at 10 µM,[3],99.4%
CC1=C(O)C(=O)C=C2C1=CC=C1[C@@]2(C)CC[C@@]2(C)[C@@H]3C[C@](C)(C(=O)O)CC[C@]3(C)CC[C@]12C [CELASTROL],Hs18S ΔCT,[1]; [4],3.82
same,cytotoxicity at 10 µM,[3],92.9%
C[C@@H]1O[C@@H](O[C@H]2CC[C@]3(C=O)[C@H]4CC[C@]5(C)[C@@H](C6=CC(=O)OC6)CC[C@]5(O)[C@@H]4CC[C@]3(O)C2)[C@H](O)[C@H](O)[C@H]1O [CONVALLATOXIN],Hs18S ΔCT,[1]; [4],10.84
same,cytotoxicity at 10 µM,[3],99.9%
C[C@H]1O[C@@H](O[C@H]2[C@@H](O)C[C@H](O[C@H]3[C@@H](O)C[C@H](O[C@H]4CC[C@@]5(C)[C@H](CC[C@@H]6[C@@H]5CC[C@]5(C)[C@@H](C7=CC(=O)OC7)CC[C@]65O)C4)O[C@@H]3C)O[C@@H]2C)C[C@H](O)[C@@H]1O [DIGITOXIN],Hs18S ΔCT,[1]; [4],13.47
same,cytotoxicity at 10 µM,[3],100%
C[C@H]1O[C@@H](O[C@H]2[C@@H](O)C[C@H](O[C@H]3[C@@H](O)C[C@H](O[C@H]4CC[C@@]5(C)[C@H](CC[C@@H]6[C@@H]5C[C@@H](O)[C@]5(C)[C@@H](C7=CC(=O)OC7)CC[C@]65O)C4)O[C@@H]3C)O[C@@H]2C)C[C@H](O)[C@@H]1O [DIGOXIN],Hs18S ΔCT,[1]; [4],14.32
same,cytotoxicity at 10 µM,[3],100%
CC(C)=CCC[C@]1(C)C=Cc2c(O)c3c(c(CC=C(C)C)c2O1)O[C@]12C(=C[C@@H]4C[C@H]1C(C)(C)O[C@@]2(C/C=C(/C)C(=O)O)C4=O)C3=O [GAMBOGIC ACID],Hs18S ΔCT,"[1]; human, 41 h, 10 μM",10.02
same,"cytotoxicity at 41 h, 10 µM",[3]; human,99.9%
CC(=O)O[C@H]1CC[C@@]2(C)[C@H](CC[C@@H]3[C@@H]2CC[C@]2(C)[C@@H](C4=CC(=O)OC4)[C@@H](OC(C)=O)C[C@]32O)C1 [GITOXIGENIN DIACETATE],Hs18S ΔCT,[1]; [4],8.90
same,cytotoxicity at 10 µM,[3],99.8%
CC(=O)O[C@H]1C[C@H](O[C@H]2[C@@H](O)C[C@H](O[C@H]3[C@@H](O)C[C@H](O[C@H]4CC[C@@]5(C)[C@H](CC[C@@H]6[C@@H]5C[C@@H](O)[C@]5(C)[C@@H](C7=CC(=O)OC7)CC[C@]65O)C4)O[C@@H]3C)O[C@@H]2C)O[C@H](C)[C@H]1O[C@@H]1O[C@H](CO)[C@@H](O)[C@H](O)[C@H]1O [LANATOSIDE C],Hs18S ΔCT,[1]; [4],8.93
same,cytotoxicity at 10 µM,[3],99.8%
C[C@@H]1O[C@@H](O[C@H]2C[C@@H](O)[C@]3(CO)[C@H]4[C@H](O)C[C@]5(C)[C@@H](C6=CC(=O)OC6)CC[C@]5(O)[C@@H]4CC[C@]3(O)C2)[C@H](O)[C@H](O)[C@H]1O [OUABAIN],Hs18S ΔCT,[1]; [4],11.65
same,"cytotoxicity at 41 h, 10 µM",[3],100%
CO[C@H]1[C@H](O)[C@H](O[C@H]2CC[C@@]3(C=O)[C@H](CC[C@@H]4[C@@H]3CC[C@]3(C)[C@@H](C5=CC(=O)OC5)CC[C@]43O)C2)O[C@@H](C)[C@@H]1O [PERUVOSIDE],Hs18S ΔCT,[1]; [4],10.85
same,cytotoxicity at 10 µM,[3],99.9%
COc1cc([C@@H]2c3cc4c(cc3[C@H](O)[C@H]3COC(=O)[C@H]23)OCO4)cc(OC)c1OC [PODOFILOX],Hs18S ΔCT,[1]; [4],5.42
same,"cytotoxicity at 41 h, 10 µM",[3],97.7%
CC(C)=CCc1c2c(c3occ(-c4ccc(O)c(O)c4)c(=O)c3c1O)C=CC(C)(C)O2 [POMIFERIN],Hs18S ΔCT,"[1]; human, 41 h, 10 μM",6.42
same,"cytotoxicity at 41 h, 10 µM",[3]; human,98.8%
C[C@@H]1O[C@@H](O[C@@H]2C=C3CC[C@@H]4[C@H](CC[C@]5(C)[C@@H](c6ccc(=O)oc6)CC[C@]45O)[C@@]3(C)CC2)[C@H](O)[C@H](O)[C@H]1O [PROSCILLARIDIN],Hs18S ΔCT,[1]; [4],13.28
same,cytotoxicity at 10 µM,[3],100%
C[C@]12CC[C@H]3[C@@H](CC[C@]4(O)C[C@@H](O)CC[C@]34C=O)[C@@]1(O)CC[C@@H]2C1=CC(=O)OC1 [STROPHANTHIDIN],Hs18S ΔCT,[1]; [4],11.98
same,"cytotoxicity at 41 h, 10 µM",[3]; human,100%
NCCCC(=O)O [gamma-AMINOBUTYRIC ACID],Hs18S ΔCT,"[1]; human, 41 h, 10 μM",0.04
same,"cytotoxicity at 41 h, 10 µM",[3]; human,2.6%
BLEOMYCIN (bleomycin B2 shown),Cytotoxicity (%),[1]; [5],-16.8%
same,Hs18S ΔCT,[1]; [4],-0.22
same,Inhibition (%),[2],52.96%
CASANTHRANOL [CASANTHRANOL [cascaroside A shown]],Cytotoxicity (%),[1]; 10 µM,15.4%
same,Inhibition (%),[2],50.17%
COLISTIN SULFATE,Cytotoxicity (%),[1]; [5],0.4%
same,Hs18S ΔCT,[1]; [4],0.01
same,Inhibition (%),[2],33.43%
CYANOCOBALAMIN,Cytotoxicity (%),[1]; [5],-24.5%
same,Hs18S ΔCT,[1]; [4],-0.32
same,Inhibition (%),[2],16.98%
DEGUELIN(-),Cytotoxicity (%),[1]; [5],34.2%
same,Hs18S ΔCT,[1]; [4],0.60
same,Inhibition (%),[2],45.04%
GARLICIN,Cytotoxicity (%),[1]; 10 µM,-30.8%
same,Inhibition (%),[2],4.93%
IVERMECTIN,Cytotoxicity (%),[1]; [5],-3.4%
same,Hs18S ΔCT,[1]; [4],-0.05
same,Inhibition (%),[2],78.97%
same,% Inhibition (3.3 uM),[2],6%
KHAYANTHONE,Cytotoxicity (%),[1]; [5],-0.3%
same,Hs18S ΔCT,[1]; [4],-0.01
same,Inhibition (%),[2],-5.94%
LYSINE (L) HYDROCHLORIDE,Cytotoxicity (%),[1]; [5],-11.0%
same,Hs18S ΔCT,[1]; [4],-0.15
same,Inhibition (%),[2],-22.55%
OMEGA-3-ACID ESTERS (EPA shown),Cytotoxicity (%),[1]; 10 µM,-17.4%
same,Inhibition (%),[2],4.36%
PHYTOL,Cytotoxicity (%),[1]; [5],-33.6%
same,Hs18S ΔCT,[1]; [4],-0.42
same,Inhibition (%),[2],-12.94%
POLYMYXIN B SULFATE,Cytotoxicity (%),[1]; [5],-15.1%
same,Hs18S ΔCT,[1]; [4],-0.20
same,Inhibition (%),[2],-11.86%
POMIFERIN TRIMETHYL ETHER,Cytotoxicity (%),[1]; [5],11.4%
same,Hs18S ΔCT,[1]; [4],0.17
same,Inhibition (%),[2],-34.33%
SPIRAMYCIN,Cytotoxicity (%),[1]; 10 µM,-12.2%
same,Inhibition (%),[2],-12.26%
STROPH[…] LACTONE ACETATE,Cytotoxicity (%),[1]; [5],80.7%
same,Hs18S ΔCT,[1]; [4],2.37
same,Inhibition (%),[2],96.28%
same,% Inhibition (3.3 uM),[2],19%
TANNIC ACID,Cytotoxicity (%),[1]; [5],17.0%
same,Hs18S ΔCT,[1]; [4],0.27
same,Inhibition (%),[2],-22.61%
VERATRINE SULFATE,Hs18S ΔCT,[1],-0.06
same,Cytotoxicity (%),[1]; 10 µM,-4.3
same,Inhibition (%),[2],25.98%
